According to EP0359821A1, “METHOD OF STERILIZING PLANT ANTHERS” (priority 1988, dated 1989):

Key:
[1] = tested on: Tritikale Sorte PRAG I09; assay: Field trial of gametocidal activity, triticale; format: in vivo; conditions: 1% aqueous emulsion, 12 kg/ha
Text: (§1) Bei Weizen und Tritikale werden Einzelisolatoren verwendet.
Pflanzen von Tritikale Sorte PRAG I09 werden in der V. und VI.
Der Verbrauch an Sterilisationsmittel beträgt 12 kg/ha.

[2] = tested on: Diploider Roggen Sorte Chulpan; assay: Field trial of gametocidal activity, diploid rye Chulpan; format: in vivo
Text: as §1
Pflanzen von diploidem Roggen Sorte Chulpan werden in der V. oder VI.
Der Verbrauch an Sterilisationsmitteln beträgt 10 kg/ha.

[3] = tested on: Hirse Sorte Mironovskoe 94; assay: Field trial of gametocidal activity, millet Mironovskoe 94; format: in vivo; conditions: 1% aqueous emulsion, 10 kg/ha; for percent pollen sterility at 10000 g/ha: read-out: Prozentsatz der Sterilität; for response vs control in vivo at 10000 g/ha: control = 100, read-out: Prozentsatz des Ansetzens bei freier Bestäubung
[4] = in vivo; conditions: mouse
[5] = tested on: Tetraploider Roggen Sorte Jubileinaya; assay: Field trial of gametocidal activity, tetraploid rye Jubileinaya; conditions: 1% aqueous emulsion, 10 kg/ha; for Prozentsatz des Ansetzens bei freier Bestäubung: control = 100
[6] = tested on: Tetraploider Roggen Sorte Belta; assay: Field trial of gametocidal activity, tetraploid rye Belta; format: in vivo; conditions: 1% aqueous emulsion, 10 kg/ha
[7] = tested on: Diploider Roggen Sorte Kharkovskaya 55; assay: Field trial of gametocidal activity, diploid rye Kharkovskaya 55; conditions: 1% aqueous emulsion, 6 kg/ha
[8] = tested on: Tetraploider Roggen Sorte Ukrainskaya tetra; assay: Field trial of gametocidal activity, tetraploid rye Ukrainskaya tetra; format: in vivo; conditions: 1% aqueous emulsion, 10 kg/ha; for Prozentsatz des Ansetzens bei freier Bestäubung: control = 100
[9] = tested on: Sommerweizen Sorte Moskovskaya 35; assay: Field trial of gametocidal activity, spring wheat; format: in vivo, Weizen; conditions: 1% aqueous emulsion, 10 kg/ha; for Anzahl von Körnern der Ähre bei freier Bestäubung / Anzahl von Körnern der Ähre im Isolator / percent sterility at 10000 g/ha: V. period; for percent sterility at 10000 g/ha: read-out: Prozentsatz der Sterilität; for response vs control in vivo at 10000 g/ha: control = 100, read-out: Prozentsatz des Ansetzens bei freier Bestäubung
[10] = tested on: Roggen Sorte Voskhod 2; assay: Field trial of gametocidal activity, diploid rye Voskhod 2; format: in vivo; conditions: 1% aqueous emulsion, 8 kg/ha
[11] = Chulpan, single compounds, 1% aqueous emulsion, 10 kg/ha, V. or VI. period

NCCO.O=CO [Beispiel 48, Monoäthanolaminsalz der Ameisensäure]
Prozentsatz der Sterilität ([1]; V. and VI. period): 99,9%
Prozentsatz des Ansetzens bei freier Bestäubung ([1]; control = 100): 92,9%
Anzahl von Körnern der Ähre bei freier Bestäubung [2, 11]: 55,2
Anzahl von Körnern der Ähre im Isolator [2, 11]: 1,2
Prozentsatz der Sterilität [2, 11]: 97,7%
Prozentsatz des Ansetzens bei freier Bestäubung ([2]; Chulpan, single compounds, 1% aqueous emulsion, 10 kg/ha, control = 100): 97,4%
Anzahl von Körnern der Rispe bei freier Bestäubung ([3]; V. or VI. period): 352,2
Anzahl von Körnern der Rispe im Isolator ([3]; V. or VI. period): 0,0
Prozentsatz der Sterilität ([3]; V. or VI. period): 100%
Prozentsatz des Ansetzens bei freier Bestäubung ([3]; control = 100): 92,8%

O=C(O)c1ccccc1C(=O)O [Beispiel 55, Phthalsäuremonoäthanolaminsalz]
LD50 [4]: 1100 mg/kg
Anzahl von Körnern der Ähre bei freier Bestäubung ([5]; V. or VI. period): 46,0
Anzahl von Körnern der Ähre im Isolator ([5]; V. or VI. period): 0,0
Prozentsatz des Ansetzens bei freier Bestäubung [5]: 95,0%
Anzahl von Körnern der Ähre bei freier Bestäubung [2, 11]: 55,6
Anzahl von Körnern der Ähre im Isolator [2, 11]: 3,1
pest or weed control at 10000 g/ha ([2]; read-out: Prozentsatz der Sterilität): 94%
response vs control in vivo at 10000 g/ha ([2]; read-out: Prozentsatz des Ansetzens bei freier Bestäubung): 98.1%
Anzahl von Körnern der Ähre bei freier Bestäubung ([6]; V. or VI. period): 44,0
Anzahl von Körnern der Ähre im Isolator ([6]; V. or VI. period): 0,3
percent sterility at 10000 g/ha ([6]; V. or VI. period, read-out: Prozentsatz der Sterilität): 99.3%
response vs control in vivo at 10000 g/ha ([6]; control = 100, read-out: Prozentsatz des Ansetzens bei freier Bestäubung): 99.3%
Anzahl von Körnern der Rispe bei freier Bestäubung ([3]; V. or VI. period): 350,9
Anzahl von Körnern der Rispe im Isolator ([3]; V. or VI. period): 0,0
percent pollen sterility at 10000 g/ha ([3]; V. or VI. period): 100%
response vs control in vivo at 10000 g/ha [3]: 92.5%

O=C(O)c1ccccc1 [Beispiel 31, Äthanolaminsalz der Benzoesäure]
LD50 [4]: 4100 mg/kg
Anzahl von Körnern der Ähre bei freier Bestäubung ([7]; V. and VI. periods): 43,7
Anzahl von Körnern der Ähre im Isolator ([7]; V. and VI. periods): 0,9
Prozentsatz der Sterilität ([7]; V. and VI. periods): 97,9%
Prozentsatz des Ansetzens bei freier Bestäubung ([7]; control = 100): 96,9%
Anzahl von Körnern der Ähre bei freier Bestäubung ([8]; V. or VI. period): 44,0
Anzahl von Körnern der Ähre im Isolator ([8]; V. or VI. period): 0,8
Prozentsatz der Sterilität ([8]; V. or VI. period): 98,2%
Prozentsatz des Ansetzens bei freier Bestäubung [8]: 99,5%

O=C(O)c1cc(Br)ccc1O [Beispiel 18, Äthanolaminsalz der 5-Bromsalizylsäure]
Anzahl von Körnern der Ähre bei freier Bestäubung [9]: 27,9
Anzahl von Körnern der Ähre im Isolator [9]: 1,8
percent sterility at 10000 g/ha [9]: 93.4%
response vs control in vivo at 10000 g/ha [9]: 102%
Prozentsatz der Sterilität ([8]; V. or VI. period): 99,8%
Prozentsatz des Ansetzens bei freier Bestäubung [8]: 94,7%
Anzahl von Körnern der Rispe bei freier Bestäubung ([3]; V. or VI. period): 320,7
Anzahl von Körnern der Rispe im Isolator ([3]; V. or VI. period): 0,0
percent pollen sterility at 10000 g/ha ([3]; V. or VI. period): 100%
response vs control in vivo at 10000 g/ha [3]: 84.5%

OCC(O)COc1ccccc1F (stereo not shown) [Beispiel 21, 3-(2'-Fluorophenoxy)-propandiol-1,2]
Anzahl von Körnern der Ähre bei freier Bestäubung [9]: 26,2
Anzahl von Körnern der Ähre im Isolator [9]: 0,1
percent sterility at 10000 g/ha [9]: 99.9%
response vs control in vivo at 10000 g/ha [9]: 95.3%
Anzahl von Körnern der Ähre im Isolator ([5]; V. or VI. period): 0,0
Prozentsatz des Ansetzens bei freier Bestäubung [5]: 97,5%
Anzahl von Körnern der Ähre bei freier Bestäubung ([10]; V. or VI. period): 46,8
Anzahl von Körnern der Ähre im Isolator ([10]; V. or VI. period): 0,3
Prozentsatz der Sterilität ([10]; V. or VI. period): 99,4%
Prozentsatz des Ansetzens bei freier Bestäubung ([10]; control = 100): 85,7%
Anzahl von Körnern der Ähre bei freier Bestäubung ([6]; V. or VI. period): 40,7
Anzahl von Körnern der Ähre im Isolator ([6]; V. or VI. period): 0,0
Anzahl von Körnern der Rispe bei freier Bestäubung ([3]; V. or VI. period): 307,5
Anzahl von Körnern der Rispe im Isolator ([3]; V. or VI. period): 0,0
percent pollen sterility at 10000 g/ha ([3]; V. or VI. period): 100%
response vs control in vivo at 10000 g/ha [3]: 81%
